Measured values: ChEMBL document CHEMBL1201862, “PubChem BioAssay data set” (2004)
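Protocol summary: plate cells (96-well), add compound at 5 concentrations, incubate 48 h, interpolate endpoints linearly. Abbreviation: GI50, concentration required for 50% inhibition of growth.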 Calls of active or inactive are those of the source. Rule as the data show it: active = GI50 up to about 1.1 µM and inactive = higher.

Experiments:
Assay in all cases: NCI anticancer screen, dose series, 48 h
OVCAR-5 = system: OVCAR-5
OVCAR-8 = system: OVCAR-8
SK-MEL-28 = system: SK-MEL-28
HL-60 = system: HL-60
RXF 393 = system: RXF 393
HCC 2998 = system: HCC 2998
SNB-19 = system: SNB-19
RPMI-8226 = system: RPMI-8226
Hs-578T = system: Hs-578T
KM12 = system: KM12
HCT-116 = system: HCT-116
LOX IMVI = system: LOX IMVI
SF-295 = system: SF-295
CCRF-CEM = system: CCRF-CEM
SK-MEL-5 = system: SK-MEL-5
NCI-H522 = system: NCI-H522
PC-3 = system: PC-3
MOLT-4 = system: MOLT-4
SK-OV-3 = system: SK-OV-3
SR = system: SR
UO-31 = system: UO-31
M14 = system: M14
SF-539 = system: SF-539
SN12C = system: SN12C
EKVX = system: EKVX
CAKI-1 = system: CAKI-1
HOP-92 = system: HOP-92
MDA-MB-435 = system: MDA-MB-435
NCI-H460 = system: NCI-H460
HT-29 = system: HT-29
MCF7 = system: MCF7
BT-549 = system: BT-549
U-251 = system: U-251
SK-MEL-2 = system: SK-MEL-2
786-0 = system: 786-0
HCT-15 = system: HCT-15
UACC-257 = system: UACC-257
COLO 205 = system: COLO 205
ACHN = system: ACHN
T47D = system: T47D
A549 = system: A549
MDA-N = system: MDA-N
MDA-MB-231 = system: MDA-MB-231
K562 = system: K562
IGROV-1 = system: IGROV-1
UACC-62 = system: UACC-62
Malme-3M = system: Malme-3M
SW-620 = system: SW-620
NCI-H23 = system: NCI-H23
OVCAR-3 = system: OVCAR-3
HOP-62 = system: HOP-62
NCI/ADR-RES = system: NCI/ADR-RES
SF-268 = system: SF-268
DU-145 = system: DU-145
TK-10 = system: TK-10
A498 = system: A498
SNB-75 = system: SNB-75
OVCAR-4 = system: OVCAR-4
NCI-H226 = system: NCI-H226

## COc1ccc(CCN2C(=O)C(=O)C(C(=O)c3ccccc3)C2c2ccccc2)cc1OC (configuration not stated)
OVCAR-5
  GI50: > 100 µM (inactive)
OVCAR-8
  GI50: > 100 µM (inactive)
SK-MEL-28
  GI50: > 100 µM (inactive)
HL-60
  GI50: > 100 µM (inactive)
RXF 393
  GI50: > 100 µM (inactive)
HCC 2998
  GI50: > 100 µM (inactive)
SNB-19
  GI50: > 100 µM (inactive)
RPMI-8226
  GI50: 51.2 µM (inactive)
Hs-578T
  GI50: 41.6 µM (inactive)
KM12
  GI50: > 100 µM (inactive)
HCT-116
  GI50: > 100 µM (inactive)
LOX IMVI
  GI50: 86.7 µM (inactive)
SF-295
  GI50: 44.2 µM (inactive)
CCRF-CEM
  GI50: 56.5 µM (inactive)
SK-MEL-5
  GI50: > 100 µM (inactive)
NCI-H522
  GI50: > 100 µM (inactive)
PC-3
  GI50: > 100 µM (inactive)
MOLT-4
  GI50: > 100 µM (inactive)
SK-OV-3
  GI50: > 100 µM (inactive)
SR
  GI50: > 100 µM (inactive)
UO-31
  GI50: > 100 µM (inactive)
M14
  GI50: > 100 µM (inactive)
SF-539
  GI50: > 100 µM (inactive)
SN12C
  GI50: 67.8 µM (inactive)
EKVX
  GI50: > 100 µM (inactive)
CAKI-1
  GI50: > 100 µM (inactive)
HOP-92
  GI50: 41.7 µM (inactive)
MDA-MB-435
  GI50: > 100 µM (inactive)
NCI-H460
  GI50: > 100 µM (inactive)
HT-29
  GI50: > 100 µM (inactive)
MCF7
  GI50: > 100 µM (inactive)
BT-549
  GI50: 51.6 µM (inactive)
U-251
  GI50: > 100 µM (inactive)
SK-MEL-2
  GI50: > 100 µM (inactive)
786-0
  GI50: > 100 µM (inactive)
HCT-15
  GI50: 60.5 µM
UACC-257
  GI50: > 100 µM (inactive)
COLO 205
  GI50: > 100 µM (inactive)
ACHN
  GI50: > 100 µM (inactive)
T47D
  GI50: 90.8 µM (inactive)
A549
  GI50: > 100 µM (inactive)
MDA-N
  GI50: > 100 µM (inactive)
MDA-MB-231
  GI50: > 100 µM (inactive)
K562
  GI50: > 100 µM (inactive)
IGROV-1
  GI50: > 100 µM (inactive)
UACC-62
  GI50: > 100 µM (inactive)
Malme-3M
  GI50: > 100 µM (inactive)
SW-620
  GI50: > 100 µM (inactive)
NCI-H23
  GI50: > 100 µM (inactive)
OVCAR-3
  GI50: > 100 µM (inactive)
HOP-62
  GI50: > 100 µM (inactive)
NCI/ADR-RES
  GI50: 58.6 µM (inactive)
SF-268
  GI50: > 100 µM (inactive)
DU-145
  GI50: > 100 µM (inactive)
TK-10
  GI50: > 100 µM (inactive)
A498
  GI50: > 100 µM (inactive)

## O=c1c2ccccc2n2n1Cc1ccccc1C2
OVCAR-8
  GI50: > 100 µM (inactive)
SK-MEL-28
  GI50: > 100 µM (inactive)
HL-60
  GI50: > 100 µM (inactive)
RXF 393
  GI50: > 100 µM (inactive)
HCC 2998
  GI50: > 100 µM (inactive)
SNB-19
  GI50: > 100 µM (inactive)
RPMI-8226
  GI50: > 100 µM (inactive)
Hs-578T
  GI50: 57.9 µM (inactive)
KM12
  GI50: > 100 µM (inactive)
HCT-116
  GI50: > 100 µM (inactive)
LOX IMVI
  GI50: > 100 µM (inactive)
SF-295
  GI50: > 100 µM (inactive)
CCRF-CEM
  GI50: > 100 µM (inactive)
SK-MEL-5
  GI50: > 100 µM (inactive)
NCI-H522
  GI50: > 100 µM (inactive)
PC-3
  GI50: > 100 µM (inactive)
MOLT-4
  GI50: > 100 µM (inactive)
SK-OV-3
  GI50: > 100 µM (inactive)
SR
  GI50: > 100 µM (inactive)
UO-31
  GI50: 86.3 µM (inactive)
SF-539
  GI50: > 100 µM (inactive)
SN12C
  GI50: > 100 µM (inactive)
EKVX
  GI50: 35.6 µM (inactive)
CAKI-1
  GI50: > 100 µM (inactive)
HOP-92
  GI50: > 100 µM (inactive)
MDA-MB-435
  GI50: > 100 µM (inactive)
NCI-H460
  GI50: > 100 µM (inactive)
HT-29
  GI50: > 100 µM (inactive)
MCF7
  GI50: > 100 µM (inactive)
BT-549
  GI50: > 100 µM (inactive)
U-251
  GI50: > 100 µM (inactive)
786-0
  GI50: > 100 µM (inactive)
HCT-15
  GI50: > 100 µM
UACC-257
  GI50: > 100 µM (inactive)
SNB-75
  GI50: 58.3 µM (inactive)
COLO 205
  GI50: > 100 µM (inactive)
OVCAR-4
  GI50: > 100 µM (inactive)
ACHN
  GI50: > 100 µM (inactive)
T47D
  GI50: > 100 µM (inactive)
A549
  GI50: > 100 µM (inactive)
MDA-N
  GI50: > 100 µM (inactive)
MDA-MB-231
  GI50: > 100 µM (inactive)
K562
  GI50: > 100 µM (inactive)
IGROV-1
  GI50: > 100 µM (inactive)
UACC-62
  GI50: > 100 µM (inactive)
Malme-3M
  GI50: > 100 µM (inactive)
SW-620
  GI50: > 100 µM (inactive)
NCI-H23
  GI50: > 100 µM (inactive)
NCI-H226
  GI50: > 100 µM (inactive)
OVCAR-3
  GI50: > 100 µM (inactive)
HOP-62
  GI50: > 100 µM (inactive)
NCI/ADR-RES
  GI50: > 100 µM (inactive)
SF-268
  GI50: > 100 µM (inactive)
DU-145
  GI50: > 100 µM (inactive)
TK-10
  GI50: > 100 µM (inactive)
A498
  GI50: > 100 µM (inactive)
